Source: PubChem BioAssay AID2060342 (Molecular Pharmacology Branch, DTP, NCI, 2025)

Tested on: 171881-019-R-J1-PDC multicell spheroid viability
Test: Anticancer human tumor 171881-019-R-J1-PDC patient-derived invasive breast carcinoma cell line growth inhibition [IpAb]
Conditions: for IC50: curve of first compound; for viability, T/C: stronger effect = lower value
Procedure, shortened: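 Combinations with ipatasertib or abemaciclib were tested on tumour spheroids holding HUVEC (25%) and MSC (15%) alongside 60% malignant cells. Top concentration was at or near clinical Cmax (10 microM if undefined), descending in half-log steps.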

[1] = second compound 0.01 µM, first compound 0.0316 µM
[2] = second compound 0.01 µM, first compound 0.1 µM
[3] = second compound 0.01 µM, first compound 0.316 µM
[4] = second compound 0.01 µM, first compound 1 µM
[5] = second compound 0.01 µM, first compound 3.16 µM
[6] = second compound 0.01 µM, first compound 10 µM
[7] = second compound 0.0316 µM, first compound 0.0316 µM
[8] = second compound 0.0316 µM, first compound 0.1 µM
[9] = second compound 0.0316 µM, first compound 0.316 µM
[10] = second compound 0.0316 µM, first compound 1 µM
[11] = second compound 0.0316 µM, first compound 3.16 µM
[12] = second compound 0.0316 µM, first compound 10 µM
[13] = second compound 0.1 µM, first compound 0.0316 µM
[14] = second compound 0.1 µM, first compound 0.1 µM
[15] = second compound 0.1 µM, first compound 0.316 µM
[16] = second compound 0.1 µM, first compound 1 µM
[17] = second compound 0.1 µM, first compound 3.16 µM
[18] = second compound 0.1 µM, first compound 10 µM
[19] = second compound 0.316 µM, first compound 0.0316 µM
[20] = second compound 0.316 µM, first compound 0.1 µM
[21] = second compound 0.316 µM, first compound 0.316 µM
[22] = second compound 0.316 µM, first compound 1 µM
[23] = second compound 0.316 µM, first compound 3.16 µM
[24] = second compound 0.316 µM, first compound 10 µM
[25] = second compound 1 µM, first compound 0.0316 µM
[26] = second compound 1 µM, first compound 0.1 µM
[27] = second compound 1 µM, first compound 0.316 µM
[28] = second compound 1 µM, first compound 1 µM
[29] = second compound 1 µM, first compound 3.16 µM
[30] = second compound 1 µM, first compound 10 µM
[31] = second compound 0.01 µM, first compound 0.00949 µM
[32] = second compound 0.01 µM, first compound 0.03 µM
[33] = second compound 0.01 µM, first compound 0.0949 µM
[34] = second compound 0.01 µM, first compound 0.3 µM
[35] = second compound 0.0316 µM, first compound 0.00949 µM
[36] = second compound 0.0316 µM, first compound 0.03 µM
[37] = second compound 0.0316 µM, first compound 0.0949 µM
[38] = second compound 0.0316 µM, first compound 0.3 µM
[39] = second compound 0.1 µM, first compound 0.00949 µM
[40] = second compound 0.1 µM, first compound 0.03 µM
[41] = second compound 0.1 µM, first compound 0.0949 µM
[42] = second compound 0.1 µM, first compound 0.3 µM
[43] = second compound 0.316 µM, first compound 0.00949 µM
[44] = second compound 0.316 µM, first compound 0.03 µM
[45] = second compound 0.316 µM, first compound 0.0949 µM
[46] = second compound 0.316 µM, first compound 0.3 µM
[47] = second compound 1 µM, first compound 0.00949 µM
[48] = second compound 1 µM, first compound 0.03 µM
[49] = second compound 1 µM, first compound 0.0949 µM
[50] = second compound 1 µM, first compound 0.3 µM
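Also: spheroids exposed to the agents for seven days before readout.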

C=CC(=O)N1CCN(c2nc(=O)n(-c3c(C)ccnc3C(C)C)c3nc(-c4c(O)cccc4F)c(F)cc23)C(C)C1 (stereo not given) + CCN1CCN(Cc2ccc(Nc3ncc(F)c(-c4cc(F)c5nc(C)n(C(C)C)c5c4)n3)nc2)CC1
IC50 (second compound 0.01 µM): 8.35 µM | IC50 (second compound 0.0316 µM): 9.5 µM | IC50 (second compound 0.1 µM): > 10 µM | IC50 (second compound 0.316 µM): > 10 µM | IC50 (second compound 1 µM): > 10 µM | viability, T/C [1]: 103% | viability, T/C [2]: 90.1% | viability, T/C [3]: 89.5% | viability, T/C [4]: 94.8% | viability, T/C [5]: 97.5% | viability, T/C [6]: 41.6% | viability, T/C [7]: 99.1% | viability, T/C [8]: 94.1% | viability, T/C [9]: 104% | viability, T/C [10]: 90.6% | viability, T/C [11]: 91.5% | viability, T/C [12]: 47.7% | viability, T/C [13]: 117% | viability, T/C [14]: 128% | viability, T/C [15]: 114% | viability, T/C [16]: 108% | viability, T/C [17]: 105% | viability, T/C [18]: 49.7% | viability, T/C [19]: 136% | viability, T/C [20]: 132% | viability, T/C [21]: 132% | viability, T/C [22]: 131% | viability, T/C [23]: 114% | viability, T/C [24]: 59.7% | viability, T/C [25]: 148% | viability, T/C [26]: 148% | viability, T/C [27]: 149% | viability, T/C [28]: 143% | viability, T/C [29]: 127% | viability, T/C [30]: 76.6%

CC(=O)c1c(C)c2cnc(Nc3ccc(N4CCNCC4)cn3)nc2n(C2CCCC2)c1=O + CCN1CCN(Cc2ccc(Nc3ncc(F)c(-c4cc(F)c5nc(C)n(C(C)C)c5c4)n3)nc2)CC1
IC50 (second compound 0.01 µM): > 0.3 µM | IC50 (second compound 0.0316 µM): > 0.3 µM | IC50 (second compound 0.1 µM): > 0.3 µM | IC50 (second compound 0.316 µM): > 0.3 µM | IC50 (second compound 1 µM): > 0.3 µM | viability, T/C (second compound 0.01 µM, first compound 0.000949 µM): 98% | viability, T/C (second compound 0.01 µM, first compound 0.003 µM): 90.7% | viability, T/C [31]: 77% | viability, T/C [32]: 94.4% | viability, T/C [33]: 105% | viability, T/C [34]: 107% | viability, T/C (second compound 0.0316 µM, first compound 0.000949 µM): 107% | viability, T/C (second compound 0.0316 µM, first compound 0.003 µM): 96.6% | viability, T/C [35]: 103% | viability, T/C [36]: 110% | viability, T/C [37]: 107% | viability, T/C [38]: 109% | viability, T/C (second compound 0.1 µM, first compound 0.000949 µM): 119% | viability, T/C (second compound 0.1 µM, first compound 0.003 µM): 109% | viability, T/C [39]: 115% | viability, T/C [40]: 117% | viability, T/C [41]: 115% | viability, T/C [42]: 112% | viability, T/C (second compound 0.316 µM, first compound 0.000949 µM): 120% | viability, T/C (second compound 0.316 µM, first compound 0.003 µM): 136% | viability, T/C [43]: 127% | viability, T/C [44]: 122% | viability, T/C [45]: 123% | viability, T/C [46]: 122% | viability, T/C (second compound 1 µM, first compound 0.000949 µM): 144% | viability, T/C (second compound 1 µM, first compound 0.003 µM): 143% | viability, T/C [47]: 142% | viability, T/C [48]: 142% | viability, T/C [49]: 140% | viability, T/C [50]: 132%

CC(C)(C)c1cnc(CSc2cnc(NC(=O)C3CCNCC3)s2)o1 + CCN1CCN(Cc2ccc(Nc3ncc(F)c(-c4cc(F)c5nc(C)n(C(C)C)c5c4)n3)nc2)CC1
IC50 (second compound 0.01 µM): 0.174 µM | IC50 (second compound 0.0316 µM): 0.182 µM | IC50 (second compound 0.1 µM): 0.191 µM | IC50 (second compound 0.316 µM): 0.196 µM | IC50 (second compound 1 µM): 0.185 µM | viability, T/C [31]: 104% | viability, T/C [32]: 93.6% | viability, T/C [33]: 114% | viability, T/C [34]: 5.39% | viability, T/C (second compound 0.01 µM, first compound 0.949 µM): 0.26% | viability, T/C (second compound 0.01 µM, first compound 3 µM): 0.29% | viability, T/C [35]: 110% | viability, T/C [36]: 99.8% | viability, T/C [37]: 121% | viability, T/C [38]: 3.9% | viability, T/C (second compound 0.0316 µM, first compound 0.949 µM): 0.25% | viability, T/C (second compound 0.0316 µM, first compound 3 µM): 0.36% | viability, T/C [39]: 116% | viability, T/C [40]: 125% | viability, T/C [41]: 138% | viability, T/C [42]: 0.81% | viability, T/C (second compound 0.1 µM, first compound 0.949 µM): 0.47% | viability, T/C (second compound 0.1 µM, first compound 3 µM): 0.46% | viability, T/C [43]: 132% | viability, T/C [44]: 126% | viability, T/C [45]: 141% | viability, T/C [46]: 1.4% | viability, T/C (second compound 0.316 µM, first compound 0.949 µM): 0.27% | viability, T/C (second compound 0.316 µM, first compound 3 µM): 0.57% | viability, T/C [47]: 148% | viability, T/C [48]: 143% | viability, T/C [49]: 118% | viability, T/C [50]: 1.51% | viability, T/C (second compound 1 µM, first compound 0.949 µM): 0.68% | viability, T/C (second compound 1 µM, first compound 3 µM): 1.06%

Cn1nccc1Nc1nccc(-c2ccn(C(CO)c3ccc(Cl)c(F)c3)c(=O)c2)n1 (stereo not given) + CCN1CCN(Cc2ccc(Nc3ncc(F)c(-c4cc(F)c5nc(C)n(C(C)C)c5c4)n3)nc2)CC1
IC50 (second compound 0.01 µM): 0.772 µM | IC50 (second compound 0.0316 µM): 0.81 µM | IC50 (second compound 0.1 µM): 0.929 µM | IC50 (second compound 0.316 µM): 1.14 µM | IC50 (second compound 1 µM): 2.97 µM | viability, T/C [1]: 117% | viability, T/C [2]: 112% | viability, T/C [3]: 79.5% | viability, T/C [4]: 41.6% | viability, T/C [5]: 24.5% | viability, T/C [6]: 18.5% | viability, T/C [7]: 132% | viability, T/C [8]: 122% | viability, T/C [9]: 80.6% | viability, T/C [10]: 43.2% | viability, T/C [11]: 29.2% | viability, T/C [12]: 19.7% | viability, T/C [13]: 138% | viability, T/C [14]: 113% | viability, T/C [15]: 78.5% | viability, T/C [16]: 47.4% | viability, T/C [17]: 31.2% | viability, T/C [18]: 20.9% | viability, T/C [19]: 144% | viability, T/C [20]: 122% | viability, T/C [21]: 79.3% | viability, T/C [22]: 52.2% | viability, T/C [23]: 38.8% | viability, T/C [24]: 26.5% | viability, T/C [25]: 161% | viability, T/C [26]: 129% | viability, T/C [27]: 87.5% | viability, T/C [28]: 61.5% | viability, T/C [29]: 46.5% | viability, T/C [30]: 32.7%
